One experiment concerns GSC1228. Kind of experiment: Cell proliferation assay (CellTiter-Glo 3D). Particulars: GSC1228, 96 h; read-out: Growth inhibitory IC50 (GI50). In kind it is cell-based. Here is the method: (§1) Supplementary materials and methods […]
(§2) Cell lines and culture conditions […]
(§3) 2013 #1009}{Katsushima, 2016 #1156}. GSC cells were cultured in Neurobasal Medium (Life Technologies, Carlsbad, CA, USA) containing N2 and B27 supplements (Life Technologies) along with human recombinant basic fibroblast growth factor and epidermal growth factor (20 ng/ml each; R&D Systems, Minneapolis, MN, USA). Cells were cultured at 37°C in a humidified incubator with 5% CO2.
(§4) For the cell proliferation assay, cells at a density of 1 × 10^5 cells per well were seeded before treatment with LSD1 inhibitors. Cell proliferation was measured after 4 days using a Cell Counting Kit 8 (Dojindo, Kumamoto, Japan) according to the manufacturer ’s […]
(§5) instructions. For GSC cells, the CellTiter-Glo 3D Viability Assay (Promega, Madison, WI, USA) was used to measure the living cells. […]
In general terms: In ATP-based viability assays light output follows the ATP content of the culture.

In a further experiment the test system is GSC222. Kind of experiment: Cell proliferation assay (CellTiter-Glo 3D). The format is cell-based. Particulars: GSC222, 96 h; read-out: Growth inhibitory IC50 (GI50). Here is the method: as §1, §2, §3, §4, §5
Another experiment relates to GSC316. Briefly: Cell proliferation assay (CellTiter-Glo 3D). The format is cell-based. Particulars: GSC316, 96 h; read-out: Growth inhibitory IC50 (GI50). As to the method: as §1, §2, §3, §4, §5
The next experiment relates to KINGS1 and F3 cells. Briefly: PARP cleavage (apoptosis) by western blot. The format is cell-based. The following applies: KINGS1 and F3, 5 μM. From the text: Super-enhancers consist of enhancer clusters with abundant binding of transcription factors and are highly enriched with H3K27ac marks. The H3K4me2 increased regions included the MYC locus and H3K4me2 de novo regions comprised Nestin and SOX2 loci (Fig. 2F, Supplementary Fig. S5A). These regions were also identified as super-enhancers in GSCs using data from our previous study (Fig. 2F). Compared to the large increase in H3K4me2 in these regions, changes in H3K4me3 were subtle after S2172 treatment (only 2582 regions were acquired modification) (Fig. 2C). Increasing the me2/me3 ratio at H3K4 is associated with reduced gene expression.
Supplementary Figure. S3 Shinjo K. et al […]
B. Western blot analysis of LSD1,MYC, Nestin, SOX2,and ACTB in same cells as shown in panel A. ACTB was used as a loading control. […] Quantification of signal intensities of the Western blot (right panel). […] Right panel: Quantification of band signal intensities from the Western blot. […] The ratio was calculated by dividing the cleaved PARP band intensity by the full-length PARP band intensity. […]
A. Left panel: Western blot analysis of H3K4me1, H3K4me2, H3K4me3, and H3K9me2 after treatment with either DMSO or S2172 5μM for 96 h in normal neural stem cell F3 . […] Right panel: Quantification of signal intensities of the Western blot. […]
C. […] Right panel: Quantification of band signal intensities from the Western blot. […]

A further experiment relates to GSC cells. Briefly: RNA-seq analysis of enhancer/super-enhancer related genes. The format is cell-based, human. Particulars: 5 μM, 96 h, relative to DMSO. Here is the method:
GSC cells treated with either DMSO (n = 4) or S2172 (5 μM, n = 4) for 96 h and total RNA was isolated with RNeasy mini kit (Qiagen). The RNA purity was determined using Agilent Tape Station (Agilent Technologies). Illumina TruSeq RNA sample preparation was conducted and the samples were run on an Illumina Hiseq XTen (Illumina). RNA-seq was aligned using HISAT2 under default setting to Homo Sapience hg38 [35]. TPM were generated using StringTie and differential expression analysis were performed using DESeq2 [37].
RNA-seq analysis was conducted to examine gene expression changes associated with super-enhancers/enhancers. Among the genes with de novo H3K4me2 modification, the average log2 fold changes (S2172 treatment relative to DMSO treatment) were −0.12 ± 0.03 for super-enhancer-related genes and −0.01 ± 0.01 for typical enhancer-related genes (P = 0.0004) (Supplementary Fig. S6B). In contrast, among the genes with increased H3K4me2 modification, the average log2 fold changes were −0.04 ± 0.01 for super-enhancer-related genes and −0.07 ± 001 for typical enhancer-related genes (P = 0.028) (Supplementary Fig. S6C).

Usually IC50 stands for the concentration at which inhibition is half-maximal. Regarding `NC1CCC(NC2CC2c2cc(F)cc(F)c2OCc2ccccc2)CC1` (centres unmarked) [S2172], the concentration for half-maximal inhibition (IC50) with GSC1228 stood at 12.5 µM. In the experiment with GSC222, the IC50 is 17 µM. Also, in the experiment on GSC316, the IC50 turned out to be 12 µM. The cleaved-PARP levels result in the experiment on KINGS1 and F3 cells is recorded as “not significantly increased”. In the experiment on GSC cells, the “average log2 fold change of expression, super-enhancer-related genes with de novo H3K4me2” value was −0.12 ± 0.03; the “average log2 fold change of expression, super-enhancer-related genes with increased H3K4me2” value is recorded as −0.04 ± 0.01; the “average log2 fold change of expression, typical enhancer-related genes with de novo H3K4me2” value is reported as −0.01 ± 0.01; the “average log2 fold change of expression, typical enhancer-related genes with increased H3K4me2” value was −0.07 ± 001.

Values taken from article PMC11645267, “Novel pharmacologic inhibition of lysine-specific demethylase 1 as a potential therapeutic for glioblastoma” (Cancer Gene Therapy, 2024).
